Measurements: US11352400B2, “PI3K gamma inhibitor peptide for treatment of respiratory system diseases” (Kither Biotech S.r.I., priority 2014, dated 2022)

How the values were obtained:
CFTR = assay: cAMP-mediated (PKA) phosphorylation of CFTR in NuLi-1 cells; format: cell-based, human; conditions: 30 minutes
Protocol: Human airway epithelial cell lines expressing a wild-type CFTR (NuLi-1) or with the ΔF508 mutation (CuFi-1) were purchased from ATCC (NuLi-1 product code: ATCC® CRL-4011™; CuFi-1 product code: ATCC® CRL-4013™). Cells were cultured in Dulbecco's Modified Eagle Medium (DMEM, Gibco, Carlsbad, Calif.) supplemented with 10% fetal bovine serum (FBS), 30 μg/mL of penicillin, 100 μg/mL of streptomycin and 300 μg/mL hygromycin B (Gibco, Carlsbad, Calif.).
For immunoprecipitation assays, protein extracts were pre-incubated with 30 μL of a 1:1 mixture of protein A or G and sepharose (Amersham Biosciences, Buckinghamshire, UK) and subsequently incubated with 20 μL of a 1:1 mixture of protein A or G and sepharose and […] of primary antibody for each mg of protein, for 2 hours at 4° C. Immune complexes were washed extensively with lysis buffer and used for Western blotting or subjected to measurements of phosphodiesterase activity.
The antibody that recognizes substrates phosphorylated by PKA (P-PKA substrate) was purchased from Cell Signaling Technology (Danvers, Mass., USA; product code: #9621) and the antibody against CFTR clone M3A7 from Millipore (Billerica, Mass., USA; product code: 05-583).

PDE4D = assay: Phosphodiesterase activity in anti-PDE4D immunoprecipitates from treated tracheal smooth muscle cells; format: cell-based, mouse; conditions: tracheal smooth muscle cells of wild-type mice (PI3Kγ+/+); 50 μM, 30 minutes
Protocol: For protein extraction from murine tracheal smooth muscle cells (mTSMCs) and human bronchial smooth muscle cells (hBSMCs), cells were treated with the indicated drugs/peptides and immediately lysed in cold lysis buffer containing 120 mmol/L NaCl, 50 mmol/L Tris-HCl (pH 8.0), complete protease inhibitors (Roche Applied Science, Indianapolis, Ind.) and phosphatase inhibitors (50 mmol/L sodium fluoride, 1 mmol/L sodium orthovanadate and 10 mmol/L sodium pyrophosphate). After 30 min of incubation on ice, lysates were centrifuged at 13000 rpm for 10 min at 4° C. and used for either Western blotting or subjected to immunoprecipitation and measurements of phosphodiesterase activity. […]
Phosphodiesterase activity in immunoprecipitates was measured according to the two-step method of Thompson and Appleman, as previously described (2), with minor modifications. […] The amount of radiolabeled adenosine in the supernatant was quantified by scintillation counting (Ultima Gold liquid scintillation from Perkin Elmer, Waltham, Mass.).
Murine tracheal smooth muscle cells were cultured from explants of trachea using previously described methods with modifications. […] More than 90% of these cells were smooth muscle cells, as determined by immunofluorescence performed with an antibody specific for smooth muscle actin. […]

[1] = system: lung inflammation in mice sensitized with ovalbumin; assay: Analysis of airway inflammation in asthmatic mice; format: in vivo, BALB/C mice; conditions: OVA-sensitized mice, vs P1
Protocol: Ovalbumin (100 μg) (OVA, Sigma-Aldrich, St. Louis, Mo.), complexed with aluminum potassium sulfate (1 mg, alum) was administered intraperitoneally (i.p.) on days 1 and 14, and intra-nasally (i.n.) (50 μg OVA in 50 μl PBS) on days 14, 25, 26, and 27. Control mice received i.p. injections of alum and i.n. injections of PBS only. Airway hyperreactivity induced by inhaled methacholine was measured at 24 hours after the final dose of OVA (Day 28).
Wild-type BALB/C mice were treated, by intra-tracheal instillation, with 25 μg of the Trojan peptide derived from PI3Kγ or equimolar amounts of P1 control peptide, in a final volume of 70 μL of phosphate-buffered saline (PBS), before each intranasal administration of ovalbumin (days 14, 25, 26, and 27 of the protocol of immunization with ovalbumin). At 24 hours after the final injection (day 28), mice were anesthetized (sodium pentobarbital, 70-90 mg/kg, i.p.) and the tracheas incised and cannulated. The airways were washed with 2.5 ml of phosphate-buffered saline solution (PBS). The total number of cells in the bronchoalveolar lavage (BAL) was determined with a Neubauer hemocytometer. A volume of 50 μL of BAL was centrifuged onto cytospin glass slides at 400 rpm at room temperature for 5 minutes and stained with a Diff-Quick system (LabAids, Ronkonkoma, USA). A total of 100 cells per slide were counted and classified as neutrophils, macrophages, lymphocytes and eosinophils on the basis of morphological criteria. Erythrocytes and epithelial cells were ignored and the results were expressed as cells/ml.
To assess the peribronchial inflammation, the lungs of a group of animals that had not been subjected to bronchoalveolar lavage were explanted, fixed in a solution of 4% paraformaldehyde (PFA) for 24 hours at 4° C. and embedded in paraffin. Slices that were 5 μm-thick, deparaffinized, stained with a hematoxylin-eosin solution (Bio-Optica, Milano, Italy), dehydrated and mounted with glass coverslips. The extent of peribronchial inflammation was classified as follows: 0—normal; 1—few inflammatory cells; 3—a thick ring of inflammatory cells.
To evaluate the presence of goblet cells, lung slices were stained with periodic acid-Schiff's reagent (PAS) (Bio-Optica, Milano, Italy) and the percentage of PAS-positive cells was calculated by counting the number of PAS-positive epithelial cells and total epithelial cells.

[2] = 25 μg/mouse intra-tracheal before each intranasal OVA

Sequence: RQIKIWFQNRRMKWKKGKATHRSPGQIHLVQRHPPSEESQAF (fusion peptide comprising SEQ ID No.1 and SEQ ID No.3) [Trojan peptide derived from PI3Kγ]
- CFTR phosphorylation (cAMP-mediated) (CFTR; 25 μM, vs vehicle or P1): significantly higher
- cAMP-dependent CFTR phosphorylation induced by a PDE4 inhibitor (CFTR; peptide 25 μM together with Rolipram 10 μM): further enhanced
- catalytic activity of PDE4D (PDE4D): significantly reduced
- number of goblet cells (PAS-positive) [1, 2]: significantly reduced
- number of neutrophils in the bronchoalveolar lavage [1, 2]: significantly lower
- peribronchial inflammatory infiltrate [1, 2]: significantly reduced
- eosinophils in the bronchoalveolar lavage ([1]; 25 μg/mouse): unchanged
- lymphocytes in the bronchoalveolar lavage ([1]; 25 μg/mouse): unchanged
- macrophages in the bronchoalveolar lavage ([1]; 25 μg/mouse): unchanged
